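Results reflect a 48-hour exposure of cells in 96-well plates to compound at five concentrations. TGI is the concentration that stops growth completely.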
Legend:
Assay in all cases: inhibition of tumour cell growth, NCI panel, 48 h
[1] = system: CCRF-CEM leukemia
[2] = system: RPMI-8226 leukemia
[3] = system: NCI/ADR-RES ovarian
[4] = system: SK-MEL-5 melanoma
[5] = system: TK-10 renal
[6] = system: MOLT-4 leukemia
[7] = system: SN12C renal
[8] = system: SF-295 CNS
[9] = system: MALME-3M melanoma
[10] = system: EKVX NSCLC

## N#CC(NCc1cccc(CNC(C#N)c2ccccc2)c1)c1ccccc1 (stereo not given)
[1]
  TGI: 36.5 µM
[2]
  TGI: 65.4 µM
[3]
  TGI: > 100 µM
[4]
  TGI: > 100 µM
[5]
  TGI: > 100 µM
[6]
  TGI: 39 µM
[7]
  TGI: > 100 µM
[8]
  TGI: > 100 µM
[9]
  TGI: 65.9 µM
[10]
  TGI: > 100 µM
